Laboratory results published in PubChem BioAssay AID256 (DTP/NCI, 2004).
Several values for one entry are separate records, joined by “and”; a condition that tells them apart may be missing. Identical values can stand only once. Inconclusive results and toxic doses are left out.

Tested on: CD2F1 mice, L1210 leukemia ip, survival T/C
Assay: NCI In Vivo Anticancer Drug Screen. Data for tumor model L1210 Leukemia (intraperitoneal) in CD2F1 (CDF1) mice
Conditions: higher = longer survival
Method in brief: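 Activity against a transplanted murine tumor was judged by comparing the compound group with a vehicle group. The outcome in the treated animals was divided by that in the controls.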

[1] = endpoint: mean survival time, dose: 12.5 mg/kg/injection, schedule: Q01DX009 (ip), vehicle: saline with Tween-80
[2] = endpoint: mean survival time, dose: 12.5 mg/kg/injection, schedule: Q04DX003 (ip), vehicle: saline with Tween-80
[3] = endpoint: mean survival time, dose: 25.0 mg/kg/injection, schedule: Q01DX009 (ip), vehicle: saline with Tween-80
[4] = endpoint: mean survival time, dose: 25.0 mg/kg/injection, schedule: Q04DX003 (ip), vehicle: saline with Tween-80
[5] = endpoint: mean survival time, dose: 50.0 mg/kg/injection, schedule: Q01DX009 (ip), vehicle: saline with Tween-80
[6] = endpoint: mean survival time, dose: 79.0 mg/kg/injection, schedule: Q01DX009 (ip), vehicle: Klucel (hydroxypropylcellulose) (HPC)
[7] = endpoint: mean survival time, dose: 118.0 mg/kg/injection, schedule: Q01DX009 (ip), vehicle: Klucel (hydroxypropylcellulose) (HPC)
[8] = endpoint: mean survival time, dose: 100.0 mg/kg/injection, schedule: Q01DX009 (ip), vehicle: saline with Tween-80
[9] = endpoint: mean survival time, dose: 200.0 mg/kg/injection, schedule: Q01DX009 (ip), vehicle: saline with Tween-80
[10] = endpoint: mean survival time, dose: 50.0 mg/kg/injection, schedule: Q01DX009 (ip), vehicle: Klucel (hydroxypropylcellulose) (HPC)
[11] = endpoint: mean survival time, dose: 100.0 mg/kg/injection, schedule: Q01DX009 (ip), vehicle: Klucel (hydroxypropylcellulose) (HPC)
[12] = endpoint: mean survival time, dose: 200.0 mg/kg/injection, schedule: Q01DX009 (ip), vehicle: Klucel (hydroxypropylcellulose) (HPC)
[13] = endpoint: mean survival time, dose: 100.0 mg/kg/injection, schedule: Q01DX001 (ip), vehicle: saline
[14] = endpoint: mean survival time, dose: 100.0 mg/kg/injection, schedule: Q04DX003 (ip), vehicle: saline with Tween-80
[15] = endpoint: mean survival time, dose: 25.0 mg/kg/injection, schedule: Q01DX009 (ip), vehicle: Klucel (hydroxypropylcellulose) (HPC)
[16] = endpoint: mean survival time, dose: 400.0 mg/kg/injection, schedule: Q01DX009 (ip), vehicle: saline with Tween-80

N#[N+]c1c(C(=O)O)[nH]c(=O)[nH]c1=O
T/C [1]: 100 % of control | T/C [2]: 101 % of control | T/C [3]: 91 % of control | T/C [4]: 102 % of control | T/C [5]: 96 % of control

OCC1OC(n2cnc3c2[nH]c(=S)n2ccnc32)C(O)C1O (stereo not given)
T/C (endpoint: mean survival time, dose: 12.5 mg/kg/injection, schedule: Q01DX005 (ip), vehicle: water): 96 % of control | T/C (endpoint: mean survival time, dose: 25.0 mg/kg/injection, schedule: Q01DX005 (ip), vehicle: water): 101 % of control | T/C (endpoint: mean survival time, dose: 50.0 mg/kg/injection, schedule: Q01DX005 (ip), vehicle: water): 96 % of control | T/C (endpoint: mean survival time, dose: 100.0 mg/kg/injection, schedule: Q01DX005 (ip), vehicle: water): 101 % of control | T/C (endpoint: mean survival time, dose: 200.0 mg/kg/injection, schedule: Q01DX005 (ip), vehicle: water): 101 % of control

CN(C)N=Nc1cccc(Cl)c1
T/C [6]: 111 % of control | T/C [7]: 108 % of control | T/C (endpoint: mean survival time, dose: 177.0 mg/kg/injection, schedule: Q01DX009 (ip), vehicle: Klucel (hydroxypropylcellulose) (HPC)): 123 % of control | T/C (endpoint: mean survival time, dose: 266.0 mg/kg/injection, schedule: Q01DX009 (ip), vehicle: Klucel (hydroxypropylcellulose) (HPC)): 108 % of control

Cn1c(=O)[nH]c2c(nc(-c3ccc(Cl)cc3)n2C)c1=O
T/C (endpoint: mean survival time, dose: 12.5 mg/kg/injection, schedule: Q01DX005 (ip), vehicle: other): 91 % of control | T/C (endpoint: mean survival time, dose: 25.0 mg/kg/injection, schedule: Q01DX005 (ip), vehicle: other): 100 % of control | T/C (endpoint: mean survival time, dose: 50.0 mg/kg/injection, schedule: Q01DX005 (ip), vehicle: other): 95 % of control | T/C (endpoint: mean survival time, dose: 100.0 mg/kg/injection, schedule: Q01DX005 (ip), vehicle: other): 95 % of control | T/C (endpoint: mean survival time, dose: 200.0 mg/kg/injection, schedule: Q01DX005 (ip), vehicle: other): 100 % of control

COc1ccc(OCCOC(=O)Nc2ccc(Cl)cc2C)cc1
T/C [5]: 90 % of control | T/C [8]: 96 % of control | T/C [9]: 100 % of control

O=C(NCCCCCCNC(=O)Nc1cccc(Cl)c1)Nc1cccc(Cl)c1
T/C [10]: 94 % of control | T/C [11]: 91 % of control | T/C [12]: 88 % of control

COc1ccc(-n2cc(C#N)c3c(C)cc(C)nc32)cc1
T/C [13]: 100 % of control | T/C (endpoint: mean survival time, dose: 200.0 mg/kg/injection, schedule: Q01DX001 (ip), vehicle: saline): 96 % of control | T/C (endpoint: mean survival time, dose: 400.0 mg/kg/injection, schedule: Q01DX001 (ip), vehicle: saline): 87 % of control

[Cl][Pt+2][Cl].[NH-]CC1([NH-])CCCCC1
T/C (endpoint: mean survival time, dose: 0.19 mg/kg/injection, schedule: Q04DX003 (ip), vehicle: saline with Tween-80): 107 % of control | T/C (endpoint: mean survival time, dose: 0.39 mg/kg/injection, schedule: Q04DX003 (ip), vehicle: saline with Tween-80): 107 % of control | T/C (endpoint: mean survival time, dose: 0.79 mg/kg/injection, schedule: Q04DX003 (ip), vehicle: saline with Tween-80): 113 % of control | T/C (endpoint: mean survival time, dose: 1.56 mg/kg/injection, schedule: Q04DX003 (ip), vehicle: saline with Tween-80): 114 % of control | T/C (endpoint: mean survival time, dose: 3.13 mg/kg/injection, schedule: Q04DX003 (ip), vehicle: saline): 202 % of control | T/C (endpoint: mean survival time, dose: 6.25 mg/kg/injection, schedule: Q04DX003 (ip), vehicle: saline): 184 % of control | T/C [2]: 244 % of control

C1=C(Nc2ccccc2)C(=Nc2ccccc2)C=C(Nc2ccccc2)C1=Nc1ccccc1
T/C [4]: 96 % of control | T/C (endpoint: mean survival time, dose: 50.0 mg/kg/injection, schedule: Q04DX003 (ip), vehicle: saline with Tween-80): 96 % of control | T/C [14]: 98 % of control

O=C1c2ccccc2C(=O)N1Cc1ccc([N+](=O)[O-])cc1Cl
T/C [5]: 87 % of control | T/C [8]: 98 % of control | T/C [9]: 94 % of control

CCCC(N)C(=O)O (stereo not given)
T/C [5]: 106 % of control | T/C [8]: 98 % of control | T/C [9]: 104 % of control

CN(C)N=Nc1ccc(Cl)cc1
T/C [6]: 111 % of control | T/C [7]: 119 % of control

O=c1[nH]cnc2nc(C3OC(CO)C(O)C3O)[nH]c12 (stereo not given)
T/C (endpoint: median survival time, dose: 4.5 mg/kg/injection, schedule: Q01DX005 (ip), vehicle: distilled water + Tween-80): 102 % of control | T/C (endpoint: median survival time, dose: 9.0 mg/kg/injection, schedule: Q01DX005 (ip), vehicle: distilled water + Tween-80): 106 % of control | T/C (endpoint: median survival time, dose: 18.0 mg/kg/injection, schedule: Q01DX005 (ip), vehicle: distilled water + Tween-80): 98 % of control | T/C (endpoint: median survival time, dose: 36.0 mg/kg/injection, schedule: Q01DX005 (ip), vehicle: distilled water + Tween-80): 100 % of control | T/C (endpoint: median survival time, dose: 72.0 mg/kg/injection, schedule: Q01DX005 (ip), vehicle: distilled water + Tween-80): 107 % of control

CCCCCC(C[N+](C)(C)C)C(=O)/C=C/c1ccc(Cl)cc1 (stereo not given)
T/C (endpoint: mean survival time, dose: 12.0 mg/kg/injection, schedule: Q01DX009 (ip), vehicle: Klucel (hydroxypropylcellulose) (HPC)): 96 % of control | T/C [15]: 96 % of control | T/C [10]: 96 % of control

Cc1cc(C)c2nc(-c3ccc(Cl)cc3)cc(C(=O)O)c2c1
T/C [13]: 96 % of control | T/C (endpoint: mean survival time, dose: 100.0 mg/kg/injection, schedule: Q04DX002 (ip), vehicle: Klucel (hydroxypropylcellulose) (HPC)): 94 % of control | T/C (endpoint: mean survival time, dose: 200.0 mg/kg/injection, schedule: Q04DX002 (ip), vehicle: Klucel (hydroxypropylcellulose) (HPC)): 94 % of control

COC(=O)C12CCC(C)(C)CC1C1=CCC3C4(C)CCC(OC(C)=O)CC4CCC3(C)C1(C)CC2 (stereo not given)
T/C (endpoint: mean survival time, dose: 100.0 mg/kg/injection, schedule: Q01DX001 (ip), vehicle: saline with Tween-80): 93 % of control | T/C [8]: 100 % of control | T/C (endpoint: mean survival time, dose: 200.0 mg/kg/injection, schedule: Q01DX001 (ip), vehicle: saline with Tween-80): 92 % of control | T/C [9]: 100 % of control | T/C (endpoint: mean survival time, dose: 400.0 mg/kg/injection, schedule: Q01DX001 (ip), vehicle: saline with Tween-80): 97 % of control | T/C [16]: 109 % of control

OC1OCCOC1O (stereo not given)
T/C (endpoint: mean survival time, dose: 100.0 mg/kg/injection, schedule: Q01DX009 (ip), vehicle: saline): 114 % of control | T/C (endpoint: mean survival time, dose: 100.0 mg/kg/injection, schedule: Q04DX003 (ip), vehicle: saline): 99 % of control | T/C (endpoint: mean survival time, dose: 200.0 mg/kg/injection, schedule: Q01DX009 (ip), vehicle: saline): 114 % of control | T/C (endpoint: mean survival time, dose: 200.0 mg/kg/injection, schedule: Q04DX003 (ip), vehicle: saline): 99 % of control | T/C (endpoint: mean survival time, dose: 400.0 mg/kg/injection, schedule: Q01DX009 (ip), vehicle: saline): 121 % of control | T/C (endpoint: mean survival time, dose: 400.0 mg/kg/injection, schedule: Q04DX003 (ip), vehicle: saline): 115 % of control

O=C(/C=C\c1ccc(Cl)c(Cl)c1)/C=C/c1ccc(Cl)c(Cl)c1
T/C (endpoint: mean survival time, dose: 25.0 mg/kg/injection, schedule: Q04DX002 (ip), vehicle: saline with Tween-80): 95 % of control | T/C (endpoint: mean survival time, dose: 50.0 mg/kg/injection, schedule: Q04DX002 (ip), vehicle: saline with Tween-80): 87 % of control | T/C (endpoint: mean survival time, dose: 100.0 mg/kg/injection, schedule: Q04DX002 (ip), vehicle: saline with Tween-80): 106 % of control

CC/C(=N/NS(=O)(=O)c1ccc(C)cc1)C(=O)O
T/C (endpoint: mean survival time, dose: 12.5 mg/kg/injection, schedule: Q01DX009 (ip), vehicle: Klucel (hydroxypropylcellulose) (HPC)): 101 % of control | T/C [15]: 98 % of control | T/C [10]: 91 % of control | T/C [11]: 96 % of control | T/C [12]: 93 % of control | T/C (endpoint: mean survival time, dose: 400.0 mg/kg/injection, schedule: Q01DX009 (ip), vehicle: Klucel (hydroxypropylcellulose) (HPC)): 91 % of control

CC(NC1=NCCO1)c1cccc2ccccc12 (stereo not given)
T/C [14]: 89 % of control

O=[N+]([O-])c1ccc(-n2[nH]nnc2=S)cc1
T/C [1]: 95 % of control | T/C [3]: 93 % of control | T/C [5]: 102 % of control | T/C (endpoint: mean survival time, dose: 100.0 mg/kg/injection, schedule: Q01DX009 (ip), vehicle: acetone): 95 % of control | T/C [8]: 96 % of control | T/C (endpoint: mean survival time, dose: 200.0 mg/kg/injection, schedule: Q01DX009 (ip), vehicle: acetone): 94 % of control | T/C [9]: 96 % of control | T/C [16]: 93 % of control

Cc1ccc(S(=O)(=O)NC(=O)C(Cc2ccccc2)c2ccccc2)cc1 (stereo not given)
T/C (endpoint: mean survival time, dose: 75.0 mg/kg/injection, schedule: Q01DX001 (ip), vehicle: other): 96 % of control | T/C (endpoint: mean survival time, dose: 150.0 mg/kg/injection, schedule: Q01DX001 (ip), vehicle: other): 98 % of control | T/C (endpoint: mean survival time, dose: 300.0 mg/kg/injection, schedule: Q01DX001 (ip), vehicle: other): 96 % of control

O=C1CN(Cc2ccc3c(c2)OCO3)NO1
T/C (endpoint: mean survival time, dose: 6.25 mg/kg/injection, schedule: Q01DX009 (ip), vehicle: saline with Tween-80): 98 % of control and 101 % of control | T/C [1]: 98 % of control | T/C [3]: 102 % of control and 109 % of control | T/C [5]: 113 % of control | T/C [8]: 120 % of control and 104 % of control
